As a reminder, the Ki is the equilibrium dissociation constant of an inhibitor or competing ligand from its target. A low value points to higher affinity.

Where a name gives a salt, the structure may show the parent alone.

Chain of factor Xa (P00742 235-488 limits assumed): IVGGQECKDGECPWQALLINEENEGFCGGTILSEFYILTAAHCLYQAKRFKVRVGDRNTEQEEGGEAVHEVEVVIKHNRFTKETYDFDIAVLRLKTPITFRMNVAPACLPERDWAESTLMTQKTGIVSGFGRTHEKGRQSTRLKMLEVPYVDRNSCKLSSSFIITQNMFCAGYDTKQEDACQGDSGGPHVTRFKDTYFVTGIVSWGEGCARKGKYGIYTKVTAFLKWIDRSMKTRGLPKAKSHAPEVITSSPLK
Chain of factor Xa (P00742 41-179 partner limits assumed): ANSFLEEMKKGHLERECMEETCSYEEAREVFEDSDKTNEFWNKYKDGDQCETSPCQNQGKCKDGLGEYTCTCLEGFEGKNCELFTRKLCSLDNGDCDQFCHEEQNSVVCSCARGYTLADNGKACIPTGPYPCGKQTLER

For this assay, the target named is factor Xa (Homo sapiens, UniProt P00742). Nature of the assay: In vitro Factor Xa assay (Test 1a), chromogenic substrate S-2765. Format: biochemical. More on the design: purchased Enzyme Research Laboratories, Inc; South Bend, Ind. To be noted: Factor Xa inhibitory activity; Ki from IC50 corrected for substrate competition; 0.5 nM enzyme, 140 μM S-2765, 25° C. The source says: The ability of a compound of formula I to inhibit factor Xa, thrombin, plasmin, elastase and trypsin may be assessed by determining the concentration of compound of formula I that inhibits enzyme activity by 50% (IC50). Purified enzymes are used in chromogenic assays. To determine the inhibition constant, the IC50 value is corrected for competition with substrate using the formula:
Ki=IC50×(1/{1+((substrate concentration)/substrate Km)})
where Km is the Michaelis-Menten-constant (Y.-C. Chen and W.H. Prusoff, Biochem. Pharmacol. 22: […] (1973), which is incorporated herein by reference).
TBS-PEG buffer (50 mM Tris-Cl, pH 7.8, 200 mM NaCl, 0.05% (w/v) PEG-8000, 0.02% (w/v) NaN3) is used for this assay. The IC50 is determined by combining in appropriate wells of a Costar half-area microtiter plate 25 μl human factor Xa (Enzyme Research Laboratories, Inc.; South Bend, Ind.) in TBS-PEG; 40 μl 10% (v/v) DMSO in TBS-PEG (uninhibited control) or various concentrations of the compound to be tested diluted in 10% (v/v) DMSO in TBS-PEG; and substrate S-2765 (N-benzyloxycarbonyl-D-Arg-Gly-L-Arg-p-nitroanilide; Kabi Pharmacia, Inc.; Franklin Ohio) in TBS-PEG.
The assays are performed by pre-incubating the compound of formula I plus enzyme for 10 min, then the assay is initiated by adding substrate to obtain a final volume of 100 μl. The initial velocity of chromogenic substrate hydrolysis is measured by the change in absorbance at 405 nm using a Bio-tek Instruments kinetic plate reader (Ceres UV900HDi) at 25° C. during the linear portion of the time course (usually 1.5 min after addition of substrate). The concentration of inhibitor that causes a 50% decrease in the rate of substrate hydrolysis is predicted by linear regression after plotting the relative rates of hydrolysis (compared to the uninhibited control) versus the log of the compound of formula I concentration. The enzyme concentration is 0.5 nM and substrate concentration is 140 μM.
On to `CC(C)(C)[C@H](NC(=O)C(Cc1ccc(C(=N)N)cc1)C(=O)N1CCOCC1)C(=O)N[C@@H](CCCNC(=N)N)C(N)=O` (mixture of isomers) [Example 40, 2-(S)-{2-(S)-[2-(R,S)-(4-Carbamimidoyl-benzyl)-3-morpholin-4-yl-3-oxo-propionyl-amino]-3,3-dimethyl-butyrylamino}-5-guanidino-pentanoic acid amide trifluoroacetic acid salt], for which affinity was put at a Ki of 500 nM.
`CN(C)C(=N)c1ccc(CC(C(=O)NC(C(=O)NCC2CCC(C(=N)N(C)C)CC2)C2CCCCC2)C(=O)N(C)C)cc1` [Example 120, N-(S)-(Cyclohexyl-{[4-(N,N-dimethyl-carbamimidoyl)-cyclohexylmethyl]-carbamoyl}-methyl)-2-[4-(N,N-dimethyl-carbamimidoyl)-benzyl]-N′,N′-dimethyl-malonamide] gave a Ki of 6 nM.
Under `CN(C)C(=O)C(Cc1ccc(C(=N)N)cc1)C(=O)N[C@H](C(=O)N[C@@H](CCCNC(=N)N)C(=O)N1CCN(S(=O)(=O)c2ccc3ccc(Cl)cc3c2)CC1)C1CCCCC1` (mixture of isomers) [Example 45, 2-(R,S)-(4-Carbamimidoyl-benzyl)-N-({1-(S)-[4-(7-chloro-naphthalene-2-sulfonyl)-piperazine-1-carbonyl]-4-guanidino-butylcarbamoyl}-(S)-cyclohexyl-methyl)-N′,N′dimethyl-malonamide hydrochloric acid salt] stands 12 nM.
Consider `CCCC[C@H](NC(=O)C(Cc1ccc(C(=N)N)cc1)C(=O)N1CCOCC1)C(=O)N[C@@H](CCCNC(=N)N)C(N)=O` (stereo partly drawn) [Example 16, 2-(S)-[2-(R,S)-(4-Carbamimidoyl-benzyl)-3-morpholin-4-yl-3-oxo-propionyl-amino]-hexanoic acid(1-(S)-carbamoyl-4-guanidino-butyl)-amide trifluoroacetic acid salt], for which affinity was put at a Ki of 26 nM. Compared with the last compound, the Ki is about 2.2-fold higher.
Under `CN(C)C(=O)C(Cc1ccc(C(=N)N)cc1)C(=O)N[C@H](C(=O)NCCCCNC(=N)N)C1CCCCC1` (mixture of isomers) [Example 88, 2-(R,S)-(4-Carbamimidoyl-benzyl)-N-[(S)-cyclohexyl-(4-guanidino-butyl-carbamoyl)-methyl]-N′,N′-dimethyl-malonamide sulfuric acid salt] stands 54 nM; under `CN(C)C(=O)C(Cc1ccc(C(=N)N)cc1)C(=O)N[C@H](C(=O)NCc1cccc(CN)c1)C1CCCCC1` (stereo partly drawn) [Example 63, N-[((S)-3-Aminomethyl-benzylcarbamoyl)-cyclohexyl-methyl]-2-(R,S)-(4-carbamimidoyl-benzyl)-N′,N′-dimethyl-malonamide trifluoroacetic acid salt], 2360 nM; under `N=C(N)NCCCC(NC(=O)C(NC(=O)C(Cc1ccc(C(=N)N)cc1)C(=O)N1CCCCC1)C1CCCCC1)C(N)=O` (single isomer, unassigned; less polar) [Example 27], 3.5 nM.
Take `CCC(=N)N1CCC(CNC(=O)C(NC(=O)C(Cc2ccc(C(=N)N)cc2)C(=O)N(C)Cc2ccccc2)C2CCCCC2)CC1` (single isomer, unassigned; less polar) [Example 126]: the inhibition constant (Ki) was found to be 35 nM.
With `N=C(N)NCCC[C@H](NC(=O)[C@H](Cc1ccccc1)NC(=O)C(Cc1ccc(C(=N)N)cc1)C(=O)N1CCOCC1)C(N)=O` (mixture of isomers) [Example 43, 2-(S)-{2-(S)-[2-(R,S)-(4-Carbamimidoyl-benzyl)-3-morpholin-4-yl-3-oxo-propionyl-amino]-3-phenyl-propionylamino}-5-guanidino-pentanoic acid amide trisfluoroacetic acid salt], the Ki was 190 nM.
Under `CN(C)C(=O)C(Cc1ccc(C(=N)N)cc1)C(=O)N[C@H](C(=O)NC(Cc1ccc(C(=N)N)cc1)C(N)=O)C1CCCCC1` (mixture of isomers) [Example 87, 2-(R,S)-(4-Carbamimidoyl-benzyl)-N-{(S)-[2-(4-carbamimidoyl-phenyl)-1-carbamoyl-ethylcarbamoyl]-cyclohexyl-methyl}N′,N′-dimethyl-malonamide acetic acid salt] stands 170 nM.
